The text below walks through data of patent publication US20240194290A1, “HIDDEN ANTIBIOTICS IN THE HUMAN PROTEOME” (THE TRUSTEES OF THE UNIVERSITY OF PENNSYLVANIA, priority 2021, published 2024).

Ends that are not written are not given here.

In test [1] the test system is A. baumannii ATCC19606. Put plainly: Outer membrane permeabilization (NPN uptake) assay. Particulars: peptides at MIC, compared to untreated control and polymyxin B. It is filed as cell-based, Acinetobacter baumannii. How it is done:
FIG. 3. Synergy, resistance development and mechanism of action studies of encrypted peptides. […] (FIG. 3B) Evolution of resistance by A. baumannii to encrypted peptides derived from the CUB domain (red) or polymyxin B (gray) after 30 days of serial passaging in liquid nutrient broth. Peptides and antibiotics were used at sub-inhibitory concentrations. Cells were passaged every 48 h. […] (FIG. 3D) Cytoplasmic membrane depolarization effects of the encrypted peptides against A. baumannii. (FIG. 3E) NPN assays showing the effect of encrypted peptides derived from the CUB domain and natriuretic peptide on permeabilization of the outer membrane of A. baumannii.
In order to investigate the mode of action of encrypted peptides against bacterial cells, assays were performed to study their effects on the bacterial membrane. First, the ability of encrypted peptides to disrupt and depolarize the bacterial cytoplasmic membrane was assessed […]. 3,3′-dipropylthiadicarbocyanine iodide [DiSC3(5)] was used, a potentiometric fluorophore that accumulates and aggregates in the cytoplasmic membrane, quenching its fluorescence. Upon imbalances of the cytoplasmic membrane transmembrane potential, the fluorophore migrates to the cytoplasm or the outer environment, generating fluorescence. […]
Methods: Membrane depolarization assays. The cytoplasmic membrane depolarization activity of the peptides was determined by measurements of fluorescence of the membrane potential-sensitive dye, DiSC3(5). […] Thereafter, the cells (100 μL) were incubated for 15 min with 20 nmol L^−1 of DiSC3(5) until a stable reduction of fluorescence was achieved, indicating the incorporation of the dye into the bacterial membrane. Membrane depolarization was then monitored by observing the change in the fluorescence emission intensity of the membrane potential-sensitive dye, DiSC3(5) (λex=622 nm, λem=670 nm), after the addition of peptides (100 μL solution at MIC values). […] The membrane permeability of the peptides was determined by using the N-phenyl-1-napthylamine (NPN) uptake assay. […]

Test [2] deals with P. aeruginosa PAO1. Put plainly: Neutropenic thigh infection mouse model. It is filed as in vivo, Pseudomonas aeruginosa. To be noted: for anti-infective activity (FIG. 4E): alone, P. aeruginosa PAO1; for decrease of bacterial counts compared to untreated controls: mice, 25 μmol L^−1 intramuscular, three days post-treatment, P. aeruginosa. An excerpt:
FIG. 4. Anti-infective activity and synergistic interactions of encrypted peptides in vivo. (FIG. 4A) Schematic of the skin abscess mouse model used to assess the anti-infective activity of selected encrypted peptides from plasma proteins. […] (FIG. 4C) Mouse weight was monitored throughout the experiment (2 days) to rule out potential toxic effects of the encrypted peptides. (FIG. 4D) Schematic of the neutropenic thigh infection mouse model used to assess the anti-infective activity of selected encrypted peptides from plasma proteins. […] (FIG. 4F) Mouse weight was monitored throughout the experiment (8 days) to rule out potential toxic effects of the encrypted peptides.
Next, the efficacy of the same encrypted peptides (SCUB1-SKE25 and SCUB3-MLP22) was assessed in monotherapy and in combination therapy in a murine thigh infection model (FIG. 4D). This preclinical model is sensitive, standardized, and widely used for assessing antibiotic translatability^43,44. Briefly, mice were rendered neutropenic by cyclophosphamide treatment prior to intramuscular infection with 10^6 cells mL^−1 of the bacterial pathogens P. aeruginosa and A. baumannii (FIG. 4E). Either a single dose of each encrypted peptide (at 25 μmol L^−1) or their combination (also at 25 μmol L^−1) were delivered to the infected site via intramuscular administration. Three days post-treatment, on average the peptides reduced the bacterial load of P. aeruginosa and A. baumannii by 4 and 2 orders of magnitude, respectively, compared to untreated mice.
Methods: Skin abscess infection mouse model. A. baumannii ATCC19606 and P. aeruginosa strain PAO1 were used to infect the murine skin. Briefly, bacteria were grown in tryptic soy broth (TSB) medium. Subsequently, cells were washed twice with sterile PBS (pH 7.4, 13,000 rpm for 1 min), and resuspended to a final concentration of 1×10^5 and 1×10^6 CFU/20 μL for A. baumannii and P. aeruginosa, respectively. Female CD-1 mice (six-weeks old) were anesthetized with isoflurane and had their backs shaved and a superficial linear skin abrasion was made with a needle in order to damage the stratum corneum and upper-layer of the epidermis. […] Animals were euthanized and the area of scarified skin was excised two- and four-days post-infection, homogenized using a bead beater for 20 minutes (25 Hz), and 10-fold serially diluted for CFU quantification. […] Prior to each injection, mice were anesthetized with isoflurane and monitored (respiratory rate and pedal reflexes). Next, we monitored the formation of the abscess and euthanized the mice. The infected area was excised three-days post-infection, homogenized using a bead beater for 20 min (25 Hz), and 10-fold serially diluted for CFU quantification. […]

As for MLPKSFIKLLRSKVSSFLRPYK [SCUB3-MLP22], the “outer membrane permeabilization (NPN fluorescence)” value in test [1] is on record as “increased fluorescence”. Moreover, in test [2], the “anti-infective activity (FIG. 4E)” value is reported as “reduced infections” and the “decrease of bacterial counts compared to untreated controls” value was 3 orders of magnitude.
For the sequence SKEMFPRSFIKLLRSKVSRFLRPYK [SCUB1-SKE25], the “outer membrane permeabilization (NPN fluorescence)” value in test [1] is listed as “increased fluorescence”. Moreover, in test [2], the “anti-infective activity (FIG. 4E)” value is “reduced infections” and the “decrease of bacterial counts compared to untreated controls” value was 3 orders of magnitude.
